Experimental data from patent US20190338294A1, “ORTHOGONAL TRANSCRIPTIONAL SWITCHES DERIVED FROM TET REPRESSOR HOMOLOGS FOR SACCHAROMYCES CEREVISIAE” (The Johns Hopkins University, priority 2016, published 2019).
Where two headings read alike, the source gives them in different places.

How the values were obtained:
ethTA(=NLS-ethR-VP16) = format: cell-based, Mycobacterium tuberculosis; details: 2-Benzyl acetate 0.01%, On w/o drug
lmrTAv2 (=NLS-lmrA-VP16) = test: Lmr-Offv2 switch candidate, GFP reporter (strain lmr/yxaG-lmrTAv2); format: cell-based, Bacillus subtilis; details: Quercetin 0.13 μM, Fisetin 0.19 μM, Coumesterol 0.22 μM, On w/o drug
tTA (=tetR-VP16) = target: T1, tTA (=tetR-VP16) (Escherichia coli, UniProt P04483); test: Tet-Off switch, GFP reporter, orthogonality test; format: cell-based; details: SC with 25-μM doxycycline, 25-μM D-camphor, 48-μM DAPG or 150-μM p-cumate
T1 construct: expressed in transfected cells; host or cells: Saccharomyces cerevisiae BY4742, integrated pSIB527 (strain TetOffG)

phlTA (=phlF-VP16) [1] = test: DAPG-Off system with ADE2 reporter, spot growth on SC-Ade (strain phlA-TA); details: 24 μM DAPG, 2 days at 30° C.
Experimental: FIG. 3A-FIG. 3D is a series of photographs showing the evaluation of the DAPG-Off system using the ADE2 gene (CDS) as a reporter. Cells were cultured for 2 days at 30° C. in SC (FIG. 3A), SC-Ade (FIG. 3B), SC with 24 μM of DAPG (FIG. 3C), and SC-Ade with 24-DAPG (FIG. 3D). Cells were diluted 10-fold stepwise across each row.
A second reporter gene was used to further assess the performance of the DAPG-Off switch. Here, it was examined whether the ADE2 gene under the control of phlPr complements the adenine-auxotrophy of strain BY11204 in a DAPG-dependent manner (FIG. 3A-FIG. 3D).
phlTA (=phlF-VP16) [2] = test: DAPG-Off switch, GFP reporter, flow cytometry (strain DapG-TA); format: cell-based, Pseudomonas; details: for GFP fluorescence of DapG-TA: compared with BY4741 (background); for intensity of reporter GFP fluorescence, DAPG-Off switch: SC with 25-μM doxycycline, 25-μM D-camphor, 48-μM DAPG or 150-μM p-cumate
camTA (=camR-VP16-NLS) = test: Camphor-Off switch, GFP reporter, orthogonality test; format: cell-based, Pseudomonas putida; details: SC with 25-μM doxycycline, 25-μM D-camphor, 48-μM DAPG or 150-μM p-cumate
BY4741 [3] = details: cited from earlier work
NLS-PhlF = test: DAPG-On system with ADE2 reporter, spot growth on SC-Ade (strains AphOx-2μPhlF); details: 5 μM DAPG; hardly grew on DAPG-free SC-Ade
Experimental: Cells were cultured for 1 day at 30° C. in SC-Leu-His (FIG. 6A), SC-Leu-His-Ade (FIG. 6B), SC-Leu-His with 24-μM DAPG (FIG. 6C), and SC-Leu-His-Ade with 24-μM DAPG (FIG. 6D). The cells were diluted 10-fold stepwise across each row.
The performance of the DAPG-On system was assessed using ADE2 as a reporter in the ade2Δ BY11204 strain.
cymTA(=NLS-cymR-VP16) = target: T2, cymTA(=NLS-cymR-VP16) (Pseudomonas putida, UniProt O33453); test: Cumate-Off switch, GFP reporter (strain cymG-TA); format: cell-based; details: SC with 25-μM doxycycline, 25-μM D-camphor, 48-μM DAPG or 150-μM p-cumate
T2 construct: (cymTA in pSIB470); expressed in transfected cells; host or cells: Saccharomyces cerevisiae BY4741, integrated pSIB470 (strain cymG-TA)

BY4741 [4] = test: Effects of DAPG on plating efficiency of BY4741; format: cell-based, Saccharomyces cerevisiae; details: 2 days
Experimental: FIG. 2 is a bar graph showing the effects of DAPG on plating efficiency of BY4741. Yeast strain BY4741 overnight culture in SC medium was diluted 25,000-fold, and 100 μl was spread on SC, and SC containing 24-μM or 48 μM of DAPG. The number of colonies formed was counted after 2 days. The values were means and standard deviations calculated from three experiments.

varTA (=varR-VP16) = test: Var-Off switch candidate, GFP reporter (strain varG-TA); format: cell-based, Streptomyces virginae; details: Virginiamycin S1 2 mM, On w/o drug
icaTA (=icaR-VP16) = test: IcaR-Off switch candidate, GFP reporter (strain icaG-TA); format: cell-based, Staphylococcus epidermidis; details: Gentamicin 10 mM, On w/o drug

T2 sequence (O33453 other isoform, or with tags, fused parts or gaps): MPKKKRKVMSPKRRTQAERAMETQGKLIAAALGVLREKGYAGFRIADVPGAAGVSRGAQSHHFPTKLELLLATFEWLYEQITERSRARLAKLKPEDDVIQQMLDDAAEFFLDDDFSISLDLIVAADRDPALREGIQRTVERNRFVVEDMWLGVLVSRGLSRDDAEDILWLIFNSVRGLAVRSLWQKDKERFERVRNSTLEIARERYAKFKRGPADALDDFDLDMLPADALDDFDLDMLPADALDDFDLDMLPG

With `CC(=O)OCc1ccccc1` [2-Benzyl acetate] the “Expression of GFP with drug” value (ethTA(=NLS-ethR-VP16)) was “On” and the “Expression of GFP with drug” value (ethTA(=NLS-ethR-VP16); listed as 2-benzyl acetate) was “solid ligand-independent GFP fluorescence”.
In the case of `O=c1oc2cc(O)ccc2c2oc3cc(O)ccc3c12` [Coumesterol], the “Expression of GFP with drug” value (lmrTAv2 (=NLS-lmrA-VP16)) is reported as “On”.
In the case of `CC(=O)c1c(O)cc(O)c(C(C)=O)c1O` [DAPG, 2,4-diacetylphloroglucinol], the “intensity of reporter GFP fluorescence, Tet-Off switch” value (tTA (=tetR-VP16)) is reported as “lowered GFP fluorescence”, the “growth of phlA-TA strain on SC-Ade medium” value (phlTA (=phlF-VP16) [1]) is reported as “did not grow” and the “culture time over which GFP fluorescence reduced to background levels” value (phlTA (=phlF-VP16) [2]; 48 μM DAPG, strain DapG-TA) is reported as 14 h. For the same compound, the “GFP fluorescence of DapG-TA” value (phlTA (=phlF-VP16) [2]; 12-μM DAPG in SC) was “higher than that of the BY4741 control strain”, the “GFP fluorescence of DapG-TA” value (phlTA (=phlF-VP16) [2]; 48-μM DAPG in SC) was “decreased to the same level as BY4741” and the “intensity of reporter GFP fluorescence, DAPG-Off switch” value (phlTA (=phlF-VP16) [2]) was “decreased to the background level”. For the same compound, the “intensity of reporter GFP fluorescence, Camphor-Off switch” value (camTA (=camR-VP16-NLS)) was “lowered GFP fluorescence”, the “growth of BY4741” value (BY4741 [3]; 10-μg/ml DAPG (Kwak et al., 2011)) was “did not inhibit growth” and the “growth of cells of BY4741 background” value (BY4741 [3]; higher concentrations than 10-μg/ml DAPG (Troppens et al., 2013)) was “did show sensitivity”. The “growth of strains AphOx-2μPhlF on SC-Ade medium” value (NLS-PhlF) was “vigorous growth”, the “intensity of reporter GFP fluorescence, Cumate-Off switch” value (cymTA(=NLS-cymR-VP16)) was “strong GFP signal” and the “number of colonies formed” value (BY4741 [4]; SC with 24-μM (5-μg/ml) DAPG vs SC without DAPG) was “little difference”. For the same compound, the “number of colonies formed” value (BY4741 [4]; SC with 48-μM (10-μg/ml) DAPG vs SC without DAPG) was “little difference”.
With `O=c1c(O)c(-c2ccc(O)c(O)c2)oc2cc(O)ccc12` [Fisetin] the “Expression of GFP with drug” value (lmrTAv2 (=NLS-lmrA-VP16)) was “On”.
With `O=c1c(O)c(-c2ccc(O)c(O)c2)oc2cc(O)cc(O)c12` [Quercetin] the “Expression of GFP with drug” value (lmrTAv2 (=NLS-lmrA-VP16)) was “On” and the “Expression of GFP with drug” value (lmrTAv2 (=NLS-lmrA-VP16); listed as quercetin) was “not ligand (quercetin)-responsive”.
With `CC[C@H]1NC(=O)[C@@H](NC(=O)c2ncccc2O)[C@@H](C)OC(=O)[C@H](c2ccccc2)NC(=O)[C@@H]2CC(=O)CCN2C(=O)[C@H](Cc2ccccc2)N(C)C(=O)[C@@H]2CCCN2C1=O` [Virginiamycin S1] the “Expression of GFP with drug” value (varTA (=varR-VP16)) was “On” and the “Expression of GFP with drug” value (varTA (=varR-VP16); listed as virginiamycin S) was “strong GFP expression”.
With D-camphor the “intensity of reporter GFP fluorescence, Tet-Off switch” value (tTA (=tetR-VP16)) was “strong GFP signal”, the “intensity of reporter GFP fluorescence, DAPG-Off switch” value (phlTA (=phlF-VP16) [2]) was “strong GFP signal” and the “intensity of reporter GFP fluorescence, Camphor-Off switch” value (camTA (=camR-VP16-NLS)) was “decreased to the background level”. For the same compound, the “intensity of reporter GFP fluorescence, Cumate-Off switch” value (cymTA(=NLS-cymR-VP16)) was “strong GFP signal”.
With Gentamicin the “Expression of GFP with drug” value (icaTA (=icaR-VP16)) was “On” and the “Expression of GFP with drug” value (icaTA (=icaR-VP16); listed as gentamicin) was “solid ligand-independent GFP fluorescence”.
